Experimental data taken from PubChem BioAssay (NCI).
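Protocol summary: plate cells (96-well), add compound at 5 concentrations, incubate 48 h, interpolate endpoints linearly. TGI: total growth inhibition.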

How the values were obtained:
Assay in all cases: NCI tumour cell line growth inhibition, 48 h
[1] = system: 786-0 renal
[2] = system: A498 renal
[3] = system: A549 NSCLC
[4] = system: ACHN renal
[5] = system: CAKI-1 renal
[6] = system: CCRF-CEM leukemia
[7] = system: COLO 205 colon
[8] = system: DLD-1 colon
[9] = system: DMS 114 small cell lung
[10] = system: DMS 273 small cell lung
[11] = system: HCC-2998 colon
[12] = system: HCT-116 colon
[13] = system: HCT-15 colon
[14] = system: HL-60(TB) leukemia
[15] = system: HOP-18 NSCLC
[16] = system: HOP-62 NSCLC
[17] = system: HOP-92 NSCLC
[18] = system: HT29 colon
[19] = system: IGROV1 ovarian
[20] = system: K-562 leukemia
[21] = system: KM12 colon
[22] = system: KM20L2 colon
[23] = system: LOX IMVI melanoma
[24] = system: LXFL 529 NSCLC
[25] = system: M14 melanoma
[26] = system: M19-MEL melanoma
[27] = system: MALME-3M melanoma
[28] = system: MOLT-4 leukemia
[29] = system: NCI-H460 lung
[30] = system: NCI-H522 lung
[31] = system: OVCAR-4 ovarian
[32] = system: OVCAR-5 ovarian
[33] = system: OVCAR-8 ovarian
[34] = system: RPMI-8226 leukemia
[35] = system: RXF 393 renal
[36] = system: RXF-631 renal
[37] = system: SF-268 CNS
[38] = system: SF-295 CNS
[39] = system: SF-539 CNS
[40] = system: SK-MEL-2 melanoma
[41] = system: SK-MEL-5 melanoma
[42] = system: SK-OV-3 ovarian
[43] = system: SN12C renal
[44] = system: SNB-19 CNS
[45] = system: SNB-75 CNS
[46] = system: SNB-78 CNS
[47] = system: SR leukemia
[48] = system: SW-620 colon
[49] = system: TK-10 renal
[50] = system: U251 CNS
[51] = system: UACC-257 melanoma
[52] = system: UACC-62 melanoma
[53] = system: UO-31 renal

Measured: TGI

S=C1SCC2CCCN12 (stereo not drawn)
> 100 µM: all assays above
